Experimental data taken from US20260256733A1, “COMPOSITIONS AND METHODS FOR MODULATING STRESS AND USES THEREOF” (BRIGHTSEED, INC., priority 2023, published 2026).

Key:
mGlu2 [1] = biological target: T1, mGlu2 (Homo sapiens, UniProt Q14416); test: Standardized bioassay protocol, mGluR2 antagonist/NAM assay; assay type: cell-based; conditions: for Activity Level: 20 μM, mGlu2 activity, control at 100%, greater than control indicates NAM or antagonist; for Bioactivity Class: assay performed at 20 μM
Description: (§1) A standardized bioassay protocol was followed as illustrated in FIG. 3. In the standardized bioassay protocol, an assay buffer of HBSS with 1% HEPES was used. Cells were seeded overnight at 10,000 cells/well in 20 μl plating reagent. Controls for the experiment were an agonist of L-glutamic acid (AC156212500), agonist of LY354740 (fisher part #: 32-465-0), antagonist of LY341495 (fisher part #: 12-095-0), PAM of BINA (fisher part #: 40-485-0), and NAM of (decoglurant (fisher part #: 50-203-0742).
(§2) The results are illustrated in Table 7 and FIGS. 4 and 5. FIG. 4 illustrates mGlu2 activity greater than control (dotted red line at 100%) is indicative of an mGlu2 negative allosteric modulator or antagonist. The assay was performed at 20 μM. FIG. 5 illustrates mGlu2 activity less than the control (at 100%) is indicative of a mGlu2 positive allosteric modulator or agonist. The assay was performed at 100 μM.

mGlu2 [2] = biological target: T1, mGlu2; test: Standardized bioassay protocol, mGluR2 agonist/PAM assay; assay type: cell-based; conditions: for Activity Level: 100 μM, mGlu2 activity, control at 100%, less than control indicates PAM or agonist; for Bioactivity Class: assay performed at 100 μM
Description: as §1, §2

T1 sequence (Q14416 19-872): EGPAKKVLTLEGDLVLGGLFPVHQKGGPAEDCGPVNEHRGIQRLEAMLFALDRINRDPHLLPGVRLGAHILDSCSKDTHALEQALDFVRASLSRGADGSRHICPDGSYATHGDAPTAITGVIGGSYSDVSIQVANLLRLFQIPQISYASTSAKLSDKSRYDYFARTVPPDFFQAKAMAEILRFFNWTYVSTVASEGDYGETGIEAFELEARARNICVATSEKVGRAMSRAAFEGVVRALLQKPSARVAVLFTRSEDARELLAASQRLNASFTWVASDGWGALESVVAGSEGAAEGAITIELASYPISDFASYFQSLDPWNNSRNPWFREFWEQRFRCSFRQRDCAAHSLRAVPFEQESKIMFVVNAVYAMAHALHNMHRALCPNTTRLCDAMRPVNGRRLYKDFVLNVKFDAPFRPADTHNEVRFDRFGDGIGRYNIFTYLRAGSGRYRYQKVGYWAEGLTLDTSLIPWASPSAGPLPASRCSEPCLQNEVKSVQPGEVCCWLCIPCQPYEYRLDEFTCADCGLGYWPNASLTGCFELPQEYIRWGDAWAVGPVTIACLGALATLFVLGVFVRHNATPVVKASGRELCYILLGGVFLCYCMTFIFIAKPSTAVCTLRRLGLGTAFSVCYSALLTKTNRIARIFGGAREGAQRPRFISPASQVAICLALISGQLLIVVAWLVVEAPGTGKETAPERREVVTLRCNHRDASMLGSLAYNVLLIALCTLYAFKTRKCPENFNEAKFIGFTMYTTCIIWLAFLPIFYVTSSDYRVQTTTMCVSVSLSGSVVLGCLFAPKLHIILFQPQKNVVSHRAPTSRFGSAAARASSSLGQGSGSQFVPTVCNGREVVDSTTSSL

Compound	Activity Level (mGlu2 [1])	Bioactivity Class (mGlu2 [1])	Activity Level (mGlu2 [2])	Bioactivity Class (mGlu2 [2])
O=C1c2cccc(O)c2C(=O)C2C(O)=CC(CO)=CC12 (stereo not drawn) [Compound 4]	20 μM/191.200%	Antagonist/NAM	–	–
O=C1c2cccc(O)c2C(=O)c2c(O)cccc21 [Compound 6]	20 μM/142.558%	Antagonist/NAM	–	–
CC(=O)Oc1cccc2c1C(=O)c1c(OC(C)=O)cc(C(=O)O)cc1C2=O [Compound 7]	20 μM/195.543%	Antagonist/NAM	–	–
O=C(O)c1cc(O)c2c(c1)C(=O)c1cccc(O)c1C2=O [Compound 8]	20 μM/749.225%	Antagonist/NAM	–	–
COc1cc(O[C@@H]2O[C@H](CO)[C@@H](O)[C@H](O)[C@H]2O)c2c(O)c(C(C)=O)c(C)cc2c1 [Compound 9]	20 μM/107.501%	Antagonist/NAM	–	–

The next lines start with the values.

Activity Level (mGlu2 [1])	Bioactivity Class (mGlu2 [1])	Activity Level (mGlu2 [2])	Bioactivity Class (mGlu2 [2])	Compound
20 μM/152.609%	Antagonist/NAM	–	–	Cn1c(=O)[nH]c(=O)c2[nH]cnc21 [Compound 10]
20 μM/153.003%	Antagonist/NAM	–	–	Cn1cnc2c1c(=O)[nH]c(=O)n2C [Compound 11]
–	–	100 μM/25.688%	Agonist/PAM	COC(=O)C1OC(=O)c2cc(O)c(O)c(O)c2C1C(CC(=O)O)C(=O)OC1C(COC(=O)c2ccc(O)c(O)c2)OC(OC(=O)c2cc(O)c(O)c(O)c2)C(O)C1OC(=O)c1cc(O)c(O)c(O)c1 (stereo not drawn) [Compound 12]
–	–	100 μM/9.870%	Agonist/PAM	Cc1cc(O)c2c(c1)C(=O)c1cc(O)cc(O)c1C2=O [Compound 13]
